We go through four compounds from US20230381204A1, “COMPOSITIONS FOR TREATING INFLAMMATIONS, WOUNDS AND SCARRING” (priority 2020, published 2023).

Structures are written as SMILES.

The test system of one series is RAW 264.7 cells. Description: MTT cell viability (toxicity evaluation) in RAW 264.7 cells. Type of series: cell-based, Mouse. The conditions noted are these: positive control for viability, 0.1%; 24 hr. The protocol: The assay was performed on 15 Tested Samples in triplicates (the Tested Samples are labeled 1-11 and 13-16). RAW 264.7 cells (1.7×10^5 ¢/ml, by counting) were seeded in 96 well plates containing […] of complete growth medium (see formulation section). The cells were incubated at 37° C. with 5% CO2 for 24 hr. The medium was aspirated and replaced by LPS-containing medium (25 ng/ml) with or without the Tested Samples at four different concentrations, as described below. In addition, Naive cells (Group 1), vehicle treated cells (Group 2), Stimulated Control (Group 3) and Stimulated Vehicle Control (Group 4) served as negative controls. SDS (Group 5) and Dexamethasone (Group 6) served as positive controls for viability and anti-inflammatory assays, respectively. The blank control group was included in the assay (Group 11), and subtracted from all treatments. The cells were incubated at 37° C. with 5% CO2 for 24 hr. At the end of incubation, the viability of the cells was measured using the MTT assay. Viability greater than 85% was considered nontoxic.

A further series concerns IL-1α. Description: LPS-induced IL-1α secretion in RAW 264.7 cells (ELISA). Type of series: cell-based. The following applies: Mus musculus, read-out: IL-1 alpha inhibition. On the procedure: (§1) RAW 264.7 cells ([…] ¢/ml, by counting) were seeded in 96 well plates containing 170 μl/well of complete growth medium (See formulation section). The cells were incubated at 37° C. with 5% CO2 for 24 hr. The medium was aspirated and replaced by LPS-containing medium (25 ng/ml) with or without the Tested Samples at two different concentrations (similarly to what is presented in Table 1). In addition, Naïve cells (Group 1), vehicle treated cells (Group 2), Stimulated Control (Group 3) and Stimulated Vehicle Control (Group 4) served as negative controls. SDS (Group 5) and Dexamethasone (Group 6) served as positive controls for viability and anti-inflammatory assays, respectively. A Blank control group was included in the assay (Group 11), and subtracted from all treatments.
(§2) The cells were incubated at 37° C. with 5% CO2 for 24 hr. At the end of incubation, the viability of the cells was measured using the MTT assay, according to SOP. […] IL-1α, TNFα and IL-6 levels were measured by ELISA, according to manufacturer instructions. […]
(§3) The anti-inflammatory activity of the Tested Samples was examined in the LPS-induced inflammatory model (RAW 264.7 cells) and the secretion of three cytokines was monitored. Then, the compatibility and possible synergistic action of selected combination was determined. IL-1α, TNFα and IL-6 levels were measured by ELISA, according to manufacturer instructions.
Background: An ELISA detects its analyte on a solid surface through an enzyme-linked reagent.

The test system of another series is TNFα. Description: LPS-induced TNFα secretion in RAW 264.7 cells (ELISA). Type of series: cell-based, Mouse.
The next series has as its system IL-6. Nature of the series: LPS-induced IL-6 secretion in RAW 264.7 cells (ELISA). Type of series: cell-based. The conditions noted are these: Mus musculus, RAW264.7, LPS 25 ng/ml, 24 hr. The protocol:
as §1, §2, §3

Method for TNFα: RAW 264.7 cells (170×105 ¢/ml, by counting) were seeded in 96 well plates containing 170 μl/well of complete growth medium (See formulation section). The cells were incubated at 37° C. with 5% CO2 for 24 hr. The medium was aspirated and replaced by LPS-containing medium (25 ng/ml) with or without the Tested Samples at two different concentrations (similarly to what is presented in Table 1). In addition, Naïve cells (Group 1), vehicle treated cells (Group 2), Stimulated Control (Group 3) and Stimulated Vehicle Control (Group 4) served as negative controls. SDS (Group 5) and Dexamethasone (Group 6) served as positive controls for viability and anti-inflammatory assays, respectively. A Blank control group was included in the assay (Group 11), and subtracted from all treatments.
The cells were incubated at 37° C. with 5% CO2 for 24 hr. At the end of incubation, the viability of the cells was measured using the MTT assay, according to SOP. Viability greater than 85% was considered nontoxic. In addition, the spent media from all test groups was collected under standardized conditions and centrifuged at 250×g for 5 min to remove particulates. Clear supernatants were frozen at −70° C. until cytokine analysis. IL-1α, TNFα and IL-6 levels were measured by ELISA, according to manufacturer instructions.
Cell culturing and treatments was performed under sterile conditions. Experiments were carried out in a certified RAW 264.7 cells (Mouse monocyte macrophage) obtained originally from ECACC. The cells were incubated at 37° C. with 5% CO2 for 24 hr. Then, the medium
was aspirated and replaced by LPS-containing medium (25 ng/ml) with or without the Tested Samples. In addition, Naïve cells, vehicle treated cells, Stimulated Control and Stimulated Vehicle Control served as negative controls. Dexamethasone served as positive controls for anti-inflammatory assays. Blank control group was included in the assay, and subtracted from all treatments.
The anti-inflammatory activity of the Tested Samples was examined in the LPS-induced inflammatory model (RAW 264.7 cells) and the secretion of three cytokines was monitored. […] IL-1α, TNFα and IL-6 levels were measured by ELISA, according to manufacturer instructions.
Experiments were carried out in a certified RAW 264.7 cells (Mouse monocyte macrophage) obtained originally from ECACC. RAW 264.7 cells (approx. 2×105 ¢/ml, by counting) were seeded in 96 well plates containing 170 μl/well of complete growth medium. The cells were incubated at 37° C. with 5% CO2 for 24. Next, the medium was aspirated and replaced by LPS-containing medium (25 ng/ml) with or without the Tested Samples.
In addition, Naïve cells, vehicle treated cells, Stimulated Control and Stimulated Vehicle Control served as controls (FIG. 4A). […]

For the compound `CCCCCCCCCCCCOS(=O)(=O)[O-].[Na+]` [SDS], the “cell viability (MTT)” value with RAW 264.7 cells was “toxic and caused a significant reduction in cell viability”.

As for `CCCCCc1cc(O)c(C/C=C(\C)CCC=C(C)C)c(O)c1` [CBG, cannabigerol], the inhibition (as a rule, the drop in the measured response relative to a control, in per cent) at 2 µg/mL in the series on IL-1α (RAW264.7, 24 h) was 12.9%; with TNFα (Mus musculus, RAW264.7, 24 h, read-out: TNF alpha inhibition), 26.8%.

`C=C(C)[C@@H]1CCC(C)=C[C@H]1c1c(O)cc(CCCCC)cc1O` [CBD, cannabidiol]: the inhibition at 0.1 µg/mL in the series on IL-6 (0.1 μg/ml alone) amounted to 8.2%; in the series with TNFα (Mus musculus, RAW264.7, 0.1 μg/ml alone, LPS 25 ng/ml, 24 hr, read-out: TNF alpha inhibition), 12.3%. The inhibition at 0.5 µg/mL was found to be 10.6% in the series on IL-6 (0.5 μg/ml alone); 7.6% with IL-1α (RAW264.7, 0.5 μg/ml alone, LPS 25 ng/ml, 24 hr); 22.6% in the series on TNFα (Mus musculus, RAW264.7, 0.5 μg/ml alone, LPS 25 ng/ml, 24 hr, read-out: TNF alpha inhibition).

Turning to `NC(=O)NC1NC(=O)NC1=O` (stereo not drawn) [allantoin], the TNF alpha inhibition result in the series with TNFα (2 μg/ml alone, LPS 25 ng/ml) is on record as “no activity”.
